Measurements published in patent US20230365572A1, “HYDROXYLBENZYL AZABICYCLO[2.2.1]HEPTAN-1-ANE DRIVATIVES AND MEDICAL USES THEREOF” (ATROGI AB, priority 2020, published 2023).
Counter-ions that a name gives are not always drawn. Like-named read-outs stand apart in the source and are kept apart here.

How the values were obtained:
Format in all cases: cell-based
[1] = test system: Intracellular cAMP levels; assay: Measurement of intracellular cAMP levels in differentiated L6 cells (alpha screen cAMP kit); conditions: Rattus norvegicus, L6, 0.25 h, read-out: Biological example 2: intracellular cAMP levels, activity compared to that of isoproterenol
Procedure: L6-myoblasts were grown in Dulbecco's Modified Eagle's Medium (DMEM) containing 4.5 g/l glucose supplemented with 10% fetal bovine serum, 2 mM L-Glutamine, 50 U/ml penicillin, 50 1.1g/ml streptomycin and 10 mM HEPES. Cells were plated at 1×10^5 cells per ml in 24-well plates. After reaching 90% confluence the cells were grown in medium containing 2% FBS for 7 days where upon cells differentiated into myotubes. Differentiated cells were serum-starved over night and stimulated with agonist, final concentration 1×10^−5 M, for 15 min in stimulation buffer (HBSS supplemented with 1% BSA, 5 mM HEPES and 1 mM IBMX, pH 7,4) The medium was then aspirated and to end the reaction 100 μL of 95% EtOH was added to each well of a 24-well plate and cells were kept in […] over night. The EtOH was let to evaporate and 5001 μof lysis buffer (1% BSA, 5 mM HEPES and 0.3% Tween-20, pH 7,4) was added to each well before put in −80° C. for 30 min and then kept in −20° C. Intracellular cAMP levels were detected using an alpha screen cAMP kit (6760635D from Perkin Elmer). The activity for each compound is compared to that of isoproterenol.

[2] = test system: L6-myotubes; assay: Glucose uptake in L6-myotubes in the presence of the β2-antagonist ICI-118,551; conditions: differentiated L6-myotubes, ICI-118,551 1×10^−5 M, compound 1×10^−5 M
Procedure: L6-myoblasts were grown in Dulbecco's Modified Eagle's Medium (DMEM) containing 4.5 g/l glucose supplemented with 10% fetal bovine serum, 2 mM L-Glutamine, 50 U/ml penicillin, 50 1.1g/ml streptomycin and 10 mM HEPES. Cells were plated at 1×10^5 cells per ml in 24-well plates. After reaching 90% confluence the cells were grown in medium containing 2% FBS for 7 days where upon cells differentiated into myotubes. Differentiated L6-myotubes were serum-starved overnight in medium containing 0.5% fatty-acid free BSA and were incubated with the β2-adrenergic receptor antagonist ICI-118,551 at a final concentration of 1×10^−5 M for 30 min. The cells were stimulated with a compound of the invention, at a final concentration of 1×10^−5 M. After 1 h 40 min the cells were washed twice with warm, glucose free medium or PBS and additional portions of the compound of the invention and the antagonist were added. After 20 min the cells were exposed to 50 nM ^3H-2-deoxyglucose for 10 min before washed with ice cold glucose free medium or PBS three times and lysed with 0.2 M NaOH, 400 μL/well, for 1 h at 60° C. The cell lysate was mixed with 4 mL scintillation buffer (Emulsifier Safe, Perkin Elmer) and the radioactivity was detected in a β-counter (Tri-Carb 4810TR, Perkin Elmer). The activity for each compound is compared to that of isoproterenol.

[3] = test system: L6-myotubes; assay: Glucose uptake in differentiated L6-myotubes (3H-2-deoxy-glucose); conditions: read-out: Biological example 1: glucose uptake, activity compared to that of isoproterenol
Procedure: L6-myoblasts were grown in Dulbecco's Modified Eagle's Medium (DMEM) containing 4.5 g/l glucose supplemented with 10% fetal bovine serum, 2 mM L-Glutamine, 50 U/ml penicillin, 50 1.1g/ml streptomycin and 10 mM HEPES. Cells were plated at 1×10^5 cells per ml in 24-well plates. After reaching 90% confluence the cells were grown in medium containing 2% FBS for 7 days where upon cells differentiated into myotubes. Differentiated L6-myotubes were serum-starved over night in medium containing 0.5% fatty-acid free BSA and stimulated with agonist, final concentration 1×10^−5. After 1 h 40 min cells were washed with warm, glucose free medium or PBS and another portion of agonist was added to glucose free medium. After 20 min the cells were exposed to 50 nM ^3H-2-deoxy-glucose for another 10 min before washed in ice cold glucose free medium or PBS and lysed in 0.2 M NaOH for 1 h in 60° C.

[4] = differentiated cells, agonist final concentration 1×10^−5 M, 15 min
[5] = differentiated L6-myotubes, agonist final concentration 1×10^−5, 3H-2-deoxy-glucose uptake

| Compound | Emax at 10 µM [1, 4] [%] | Biological example 3: glucose uptake in the presence of the β2-antagonist ICI-118,551, activity compared to that of isoproterenol [2] | Emax at 10 µM [3, 5] [%] | Emax at 10 µM [1] [%] | Emax at 10 µM [3] [%] |
| --- | --- | --- | --- | --- | --- |
| CC12CCC([C@H](O)c3cccc(F)c3)(CC1)N2 [Example 1, (R)-(3-Fluorophenyl)(4-methyl-7-azabicyclo[2.2.1]heptan-1-yl)methanol hydrochloride] | < 25 | − (if it less than 25% it is denoted with) | > 75 |  |  |
| CC12CCC([C@@H](O)c3cccc(F)c3)(CC1)N2 [Example 2, (S)-(3-Fluorophenyl)(4-methyl-7-azabicyclo[2.2.1]heptan-1-yl)methanol hydrochloride] | < 25 | − (if it less than 25% it is denoted with) | > 75 |  |  |
| CC12CCC([C@H](O)c3ccccc3F)(CC1)N2 [Example 3, (R)-(2-Fluorophenyl)(4-methyl-7-azabicyclo[2.2.1]heptan-1-yl)methanol hydrochloride] | < 25 |  | 50 to 75 |  |  |
| CC12CCC([C@@H](O)c3ccccc3F)(CC1)N2 [Example 4, (S)-(2-Fluorophenyl)(4-methyl-7-azabicyclo[2.2.1]heptan-1-yl)methanol hydrochloride] | < 25 |  | 25 to 50 |  |  |
| CC12CCC([C@H](O)c3cccc(Cl)c3)(CC1)N2 [Example 5, (R)-(3-Chlorophenyl)(4-methyl-7-azabicyclo[2.2.1]heptan-1-yl)methanol hydrochloride] | < 25 |  | > 75 |  |  |
| CC12CCC([C@@H](O)c3cccc(Cl)c3)(CC1)N2 [Example 6, (S)-(3-Chlorophenyl)(4-methyl-7-azabicyclo[2.2.1]heptan-1-yl)methanol hydrochloride] | < 25 |  | 25 to 50 |  |  |
| CC12CCC([C@H](O)c3ccccc3Cl)(CC1)N2 [Example 7, (R)-(2-Chlorophenyl)(4-methyl-7-azabicyclo[2.2.1]heptan-1-yl)methanol hydrochloride] | < 25 |  | > 75 |  |  |
| CC12CCC([C@@H](O)c3ccccc3Cl)(CC1)N2 [Example 8, (5)-(2-Chlorophenyl)(4-methyl-7-azabicyclo[2.2.1]heptan-1-yl)methanol hydrochloride] | < 25 |  | 25 to 50 |  |  |
| CC12CCC([C@H](O)c3cncc(F)c3)(CC1)N2 [Example 9, (R)-(3-fluoropyridin-4-yl)(4-methyl-7-azabicydo[2.2.1]heptan-1-yl)-methanol] | < 25 |  | > 75 |  |  |
| CC12CCC([C@@H](O)c3cncc(F)c3)(CC1)N2 [Example 10, (S)-(3-fluoropyridin-4-yl)(4-methyl-7-azabicydo[2.2.1]heptan-1-yl)-methanol] | < 25 |  | 50 to 75 |  |  |
| CC12CCC([C@H](O)c3ccncc3F)(CC1)N2 [Example 11, (R)-(3-Fluoropyridin-4-yl)(4-methyl-7-azabicyclo[2.2.1]heptan-1-yl)-methanol] | < 25 |  | < 25 |  |  |
| CC12CCC([C@@H](O)c3ccncc3F)(CC1)N2 [Example 12, (S)-(3-Fluoropyridin-4-yl)(4-methyl-7-azabicydo[2.2.1]heptan-1-yl)-methanol] | < 25 |  | < 25 |  |  |
| CCCC12CCC([C@H](O)c3cccc(F)c3)(CC1)N2 [Example 13, (R)-(3-Fluorophenyl)(4-propyl-7-azabicyclo[2.2.1]heptan-1-yl)methanol hydrochloride] | 25 to 50 |  | 50 to 75 |  |  |
| CCCC12CCC([C@@H](O)c3cccc(F)c3)(CC1)N2 [Example 14, (S)-(3-Fluorophenyl)(4-propyl-7-azabicyclo[2.2.1]heptan-1-yl)methanol hydrochloride] | < 25 |  | < 25 |  |  |
| COCC12CCC([C@@H](O)c3cccc(F)c3)(CC1)N2 [Example 15, (S)-(3-Fluorophenyl)(4-(methoxymethyl)-7-azabicyclo[2.2.1]heptan-1-yl)methanol hydrochloride] |  |  |  | < 25 | 50 to 75 |
| COCC12CCC([C@H](O)c3cccc(F)c3)(CC1)N2 [Example 16, (R)-(3-Fluorophenyl)(4-(methoxymethyl)-7-azabicyclo[2.2.1]heptan-1-yl)methanol hydrochloride] |  | − (if it less than 25% it is denoted with) |  | < 25 | > 75 |
| O[C@@H](c1cccc(F)c1)C12CCC(COc3ccc(Cl)cc3)(CC1)N2 [Example 17, (S)-(4-((4-Chlorophenoxy)methyl)-7-azabicyclo[2.2.1]heptan-1-yl)(3-fluorophenyl)methanol] | < 25 |  | 50 to 75 |  |  |
| O[C@H](c1cccc(F)c1)C12CCC(COc3ccc(Cl)cc3)(CC1)N2 [Example 18, (R)-(4-((4-Chlorophenoxy)methyl)-7-azabicyclo[2.2.1]heptan-1-yl) (3-fluorophenyl)methanol] | < 25 |  | > 75 |  |  |
